Test results taken from patent US8513232B2, “Substituted spirocyclic piperidine derivatives as histamine-3 (H3) receptor ligands” (Cephalon, Inc., priority 2008, dated 2013).
Several values for one entry are separate records, joined by “and”; a condition that tells them apart may be missing. Equal entries are not always repeated. Where two headings read alike, the source gives them in different places.

How the values were obtained:
human H3 receptor = biological target: T1, human H3 receptor (Homo sapiens, UniProt Q9Y5N1); experiment: Human H3 radioligand binding ([3H]-N-alpha-methylhistamine, SPA)
T1 construct: expressed in transfected cells
T1 sequence (Q9Y5N1 whole entry): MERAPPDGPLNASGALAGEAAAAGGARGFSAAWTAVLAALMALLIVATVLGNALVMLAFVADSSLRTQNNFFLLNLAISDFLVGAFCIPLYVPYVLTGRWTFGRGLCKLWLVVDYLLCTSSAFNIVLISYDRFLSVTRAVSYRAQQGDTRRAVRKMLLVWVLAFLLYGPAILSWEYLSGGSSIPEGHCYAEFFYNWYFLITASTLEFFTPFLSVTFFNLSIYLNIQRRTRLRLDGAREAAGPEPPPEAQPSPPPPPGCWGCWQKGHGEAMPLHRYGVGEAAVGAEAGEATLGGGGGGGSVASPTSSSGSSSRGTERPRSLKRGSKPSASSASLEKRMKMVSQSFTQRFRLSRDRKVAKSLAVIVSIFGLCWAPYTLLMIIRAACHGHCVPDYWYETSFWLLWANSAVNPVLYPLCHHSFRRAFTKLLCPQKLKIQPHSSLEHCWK
Outline: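 Compounds (0.01 nM-30 μM) competed with approximately 1 nM [3H]-N-alpha-methylhistamine for human H3 receptor in membranes of stably transfected CHO cells, 10 μg protein per well, in Tris-HCl pH 7.4/MgCl2/BSA buffer for 4 h at room temperature. Bound radioligand measured by scintillation proximity; 10 μM clobenpropit gave non-specific binding.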

[1] = biological target: T2, rat histamine H3 receptor (Rattus norvegicus, UniProt Q9QYN8); experiment: Rat H3 radioligand binding ([3H]-N-alpha-methylhistamine, SPA)
T2 construct: encoding the entire 445-amino-acid rat histamine H3 receptor; expressed in transfected cells; membrane preparation
T2 sequence (Q9QYN8 whole entry): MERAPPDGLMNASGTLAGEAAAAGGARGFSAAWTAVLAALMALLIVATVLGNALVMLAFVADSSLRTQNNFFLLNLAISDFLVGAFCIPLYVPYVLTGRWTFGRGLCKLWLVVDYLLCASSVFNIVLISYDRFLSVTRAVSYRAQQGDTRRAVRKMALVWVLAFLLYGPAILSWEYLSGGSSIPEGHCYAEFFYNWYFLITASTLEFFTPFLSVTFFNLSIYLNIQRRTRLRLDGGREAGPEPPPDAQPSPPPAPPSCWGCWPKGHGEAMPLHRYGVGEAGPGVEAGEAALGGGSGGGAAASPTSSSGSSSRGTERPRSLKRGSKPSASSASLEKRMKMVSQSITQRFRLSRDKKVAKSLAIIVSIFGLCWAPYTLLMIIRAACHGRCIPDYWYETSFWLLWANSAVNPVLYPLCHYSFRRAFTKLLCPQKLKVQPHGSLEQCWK
Outline: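 SPA-bead binding assay using [3H]-N-alpha-methylhistamine (approximately 1 nM final) with test compounds from 0.01 nM to 30 μM. Rat H3 receptor membranes came from stably transfected CHO-A3 cells; incubation ran 4 h at room temperature, in the dark, in Tris pH 7.4 buffer with MgCl2 and BSA. Clobenpropit (10 μM) gave non-specific binding.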

[2] = Table C, human H3 binding, read-out: Human H3 Ki
[3] = Table C, rat H3 binding, read-out: Rat H3 Ki

c1cc2c(cc1N1CCC(OCC3CC3)CC1)CCC1(CCN(C3CCC3)CC1)O2 [Example 424]
Ki (human H3 receptor; [2]): < 200 nM | melting point: 280 to 283 °C | Ki [1, 3]: < 200 nM

CC(=O)N1CCC(Oc2ccc3c(c2)CCC2(CCN(C4CCC4)CC2)O3)CC1 [Example 426]
Ki (human H3 receptor; [2]): < 200 nM | melting point: 227 to 229 °C | Ki [1, 3]: < 200 nM

CC(C)C(=O)N1CCC(Oc2ccc3c(c2)CCC2(CCN(C4CCC4)CC2)O3)CC1 [Example 427]
Ki (human H3 receptor; [2]): < 200 nM | melting point: 239 to 241 °C | Ki [1, 3]: < 200 nM

O=c1ccc(-c2ccc3c(c2)CCC2(CCN(C4CCC4)CC2)O3)c[nH]1 [Example 429]
Ki (human H3 receptor; [2]): < 200 nM | melting point: 260 to 262 °C | Ki [1, 3]: < 200 nM

Cn1cc2c(n1)CCN(c1ccc3c(c1)CCC1(CCN(C4CCC4)CC1)O3)C2 [Example 430]
Ki (human H3 receptor; [2]): < 200 nM | melting point: 132 to 134 °C | Ki [1, 3]: < 200 nM

CCOC1CCN(c2ccc3c(c2)COC2(CCN(C4CCC4)CC2)O3)CC1 [Example 431]
Ki (human H3 receptor; [2]): < 200 nM | melting point: 266 to 269 °C | Ki [1, 3]: < 200 nM

c1ccc(OC2CCN(c3ccc4c(c3)CCC3(CCN(C5CCC5)CC3)O4)CC2)cc1 [Example 432]
Ki (human H3 receptor; [2]): < 200 nM | melting point: > 265 °C (dec.) | Ki [1, 3]: < 200 nM

c1cc2c(cc1OC1CCOCC1)CCC1(CCN(C3CCC3)CC1)O2 [Example 433]
Ki (human H3 receptor; [2]): < 200 nM | melting point: 252 to 254 °C | Ki [1, 3]: < 200 nM

O=C(C1CCN(c2ccc3c(c2)CCC2(CCN(C4CCC4)CC2)O3)CC1)N1CCOCC1 [Example 434]
Ki (human H3 receptor; [2]): < 200 nM | melting point: 165 to 167 °C | Ki [1, 3]: < 200 nM

O=C(C1CC1)N1CCC(Oc2ccc3c(c2)CCC2(CCN(C4CCC4)CC2)O3)CC1 [Example 435]
Ki (human H3 receptor; [2]): < 200 nM | melting point: 243 to 245 °C | Ki [1, 3]: < 200 nM

CN(C)C(=O)C1CCN(c2ccc3c(c2)CCC2(CCN(C4CCC4)CC2)O3)CC1 [Example 436]
Ki (human H3 receptor; [2]): < 200 nM | melting point: 140 to 142 °C | Ki [1, 3]: < 200 nM

O=S(=O)(C1CC1)N1CCC(Oc2ccc3c(c2)CCC2(CCN(C4CCC4)CC2)O3)CC1 [Example 437]
Ki (human H3 receptor; [2]): < 200 nM | melting point: 233 to 235 °C | Ki [1, 3]: < 200 nM

c1cc2c(cc1N1CCC1)CCC1(CCN(C3CCC3)CC1)O2 [Example 438]
Ki (human H3 receptor; [2]): < 200 nM | melting point: 118 to 120 °C | Ki [1, 3]: < 200 nM

CNC(=O)c1ccc(OC2CCN(c3ccc4c(c3)CCC3(CCN(C5CCC5)CC3)O4)CC2)nc1 [Example 439]
Ki (human H3 receptor; [2]): < 200 nM | melting point: 214 to 216 °C | Ki [1, 3]: < 200 nM

CC(C)S(=O)(=O)N1CCC(Oc2ccc3c(c2)CCC2(CCN(C4CCC4)CC2)O3)CC1 [Example 440]
Ki (human H3 receptor): < 200 nM | melting point: 233 to 235 °C | Ki [1]: < 200 nM

CCS(=O)(=O)N1CCC(Oc2ccc3c(c2)CCC2(CCN(C4CCC4)CC2)O3)CC1 [Example 441]
Ki (human H3 receptor; [2]): < 200 nM | melting point: 226 to 229 °C | Ki [1, 3]: < 200 nM

CC(C)(C)OC(=O)N1CC[C@@H](Oc2ccc3c(c2)CCC2(CCN(C4CCC4)CC2)O3)C1 [Example 442]
Ki (human H3 receptor; [2]): < 200 nM | melting point: 280 to 283 °C | Ki [1, 3]: < 200 nM

c1cc2c(cc1O[C@@H]1CCOC1)CCC1(CCN(C3CCC3)CC1)O2 [Example 443]
Ki (human H3 receptor; [2]): < 200 nM | melting point: 261 to 263 °C | Ki [1, 3]: 200 to 1000 nM

c1cc2c(cc1OCC1CC1)CCC1(CCN(C3CCC3)C1)O2 (stereo not drawn) [Example 446]
Ki (human H3 receptor; read-out: Human H3 Ki): 200 to 1000 nM | melting point: 177 to 178 °C | Ki ([1]; read-out: Rat H3 kI): 200 to 1000 nM

O=C(OCc1ccccc1)N1CC=C(c2ccc3c(c2)CCC2(CCN(C4CCC4)CC2)O3)CC1 [Example 447]
Ki (human H3 receptor; read-out: Human H3 Ki): < 200 nM | melting point: 237 to 239 °C | Ki ([1]; read-out: Rat H3 kI): < 200 nM

Cn1cc2c(n1)CCC(c1ccc3c(c1)CCC1(CCN(C4CCC4)CC1)O3)=C2 [Example 448]
Ki (human H3 receptor; read-out: Human H3 Ki): < 200 nM | melting point: 205 to 208 °C | Ki ([1]; read-out: Rat H3 kI): < 200 nM

c1cc2c(cc1O[C@H]1CCOC1)CCC1(CCN(C3CCC3)CC1)O2 [Example 450]
Ki (human H3 receptor; read-out: Human H3 Ki): < 200 nM | melting point: 259 to 261 °C | Ki ([1]; read-out: Rat H3 kI): < 200 nM

O=C(C1CCCN(c2ccc3c(c2)CCC2(CCN(C4CCC4)CC2)O3)C1)N1CCCC1 (stereo not drawn) [Example 451]
Ki (human H3 receptor; read-out: Human H3 Ki): < 200 nM | melting point: 305 to 307 °C | Ki ([1]; read-out: Rat H3 kI): < 200 nM

c1cc2c(cc1C1CCNCC1)CCC1(CCN(C3CCC3)CC1)O2 [Example 452]
Ki (human H3 receptor; read-out: Human H3 Ki): < 200 nM | melting point: 88 to 90 °C | Ki ([1]; read-out: Rat H3 kI): < 200 nM

CNC(=O)C1CCN(c2ccc3c(c2)COC2(CCN(C4CCC4)CC2)O3)CC1 [Example 453]
Ki (human H3 receptor; read-out: Human H3 Ki): < 200 nM | melting point: > 245 °C (dec.) | Ki ([1]; read-out: Rat H3 kI): < 200 nM

c1cc(-c2ccc3c(c2)CCC2(CCN(C4CCC4)CC2)O3)cs1 [Example 454]
Ki (human H3 receptor; read-out: Human H3 Ki): < 200 nM | melting point: 110 to 112 °C | Ki ([1]; read-out: Rat H3 kI): < 200 nM

CCOC(=O)C1CC=C(c2ccc3c(c2)CCC2(CCN(C4CCC4)CC2)O3)CC1 (stereo not drawn) [Example 455]
Ki (human H3 receptor; read-out: Human H3 Ki): < 200 nM | melting point: 137 to 139 °C | Ki ([1]; read-out: Rat H3 kI): < 200 nM

CCOC(=O)C1CCC(Oc2ccc3c(c2)CCC2(CCN(C4CCC4)CC2)O3)CC1 (stereo not drawn) [Example 456]
Ki (human H3 receptor; read-out: Human H3 Ki): < 200 nM | melting point: 236 to 238 °C | Ki ([1]; read-out: Rat H3 kI): < 200 nM

O=C1CCCN1CCOc1ccc2c(c1)CCC1(CCN(C3CCC3)CC1)O2 [Example 458]
Ki (human H3 receptor; read-out: Human H3 Ki): < 200 nM | melting point: 170 to 172 °C | Ki ([1]; read-out: Rat H3 kI): < 200 nM

Cn1cc2c(n1)CCC(c1ccc3c(c1)COC1(CCN(C4CCC4)CC1)O3)=C2 [Example 459]
Ki (human H3 receptor; read-out: Human H3 Ki): < 200 nM | melting point: 149 to 150 °C | Ki ([1]; read-out: Rat H3 kI): < 200 nM

O=C1CCC(=O)N1CCCOc1ccc2c(c1)CCC1(CCN(C3CCC3)CC1)O2 [Example 460]
Ki (human H3 receptor; read-out: Human H3 Ki): < 200 nM | melting point: 235 to 237 °C | Ki ([1]; read-out: Rat H3 kI): < 200 nM

[O-][S+]1CC=C(c2ccc3c(c2)COC2(CCN(C4CCC4)CC2)O3)CC1 (stereo not drawn) [Example 461]
Ki (human H3 receptor; read-out: Human H3 Ki): < 200 nM | melting point: 155 to 158 °C | Ki ([1]; read-out: Rat H3 kI): < 200 nM

O=C1CCCN1CCCOc1ccc2c(c1)CCC1(CCN(C3CCC3)CC1)O2 [Example 462]
Ki (human H3 receptor; read-out: Human H3 Ki): < 200 nM | melting point: 196 to 198 °C | Ki ([1]; read-out: Rat H3 kI): < 200 nM

c1cc2c(cc1OCC1CCOC1)CCC1(CCN(C3CCC3)CC1)O2 (stereo not drawn) [Example 463]
Ki (human H3 receptor; read-out: Human H3 Ki): < 200 nM | melting point: 97 to 99 °C | Ki ([1]; read-out: Rat H3 kI): < 200 nM

OC1(c2ccc3c(c2)COC2(CCN(C4CCC4)CC2)O3)CCSCC1 [Example 465]
Ki (human H3 receptor; read-out: Human H3 Ki): < 200 nM | melting point: 174 to 176 °C | Ki ([1]; read-out: Rat H3 kI): < 200 nM

C1=C(c2ccc3c(c2)COC2(CCN(C4CCC4)CC2)O3)CCSC1 [Example 466]
Ki (human H3 receptor; read-out: Human H3 Ki): < 200 nM | melting point: 162 to 163 °C | Ki ([1]; read-out: Rat H3 kI): < 200 nM

O=S1(=O)CCC(Oc2ccc3c(c2)CCC2(CCN(C4CCC4)CC2)O3)CC1 [Example 467]
Ki (human H3 receptor; read-out: Human H3 Ki): < 200 nM | melting point: 239 to 241 °C and 239 to 240 °C | Ki ([1]; read-out: Rat H3 kI): < 200 nM

O=C(C1CCN(c2ccc3c(c2)COC2(CCN(C4CCC4)CC2)O3)CC1)N1CCOCC1 [Example 468]
Ki (human H3 receptor; read-out: Human H3 Ki): < 200 nM | melting point: 282 to 284 °C | Ki ([1]; read-out: Rat H3 kI): < 200 nM

Cn1cc2c(n1)CCC(c1ccc3c(c1)COC1(CCN(C4CCC4)CC1)O3)C2 (stereo not drawn) [Example 469]
Ki (human H3 receptor; read-out: Human H3 Ki): < 200 nM | melting point: 138 to 140 °C | Ki ([1]; read-out: Rat H3 kI): < 200 nM

COc1cnc(-c2ccc3c(c2)COC2(CCN(C4CCC4)CC2)O3)nc1 [Example 470]
Ki (human H3 receptor; read-out: Human H3 Ki): < 200 nM | melting point: 113 to 115 °C | Ki ([1]; read-out: Rat H3 kI): < 200 nM

OC1(c2ccc3c(c2)COC2(CCN(C4CCC4)CC2)O3)CCSC1 (stereo not drawn) [Example 471]
Ki (human H3 receptor; read-out: Human H3 Ki): < 200 nM | melting point: 125 to 126 °C | Ki ([1]; read-out: Rat H3 kI): < 200 nM

[O-][S+]1CC=C(c2ccc3c(c2)COC2(CC[N+]([O-])(C4CCC4)CC2)O3)CC1 (stereo not drawn) [Example 472]
Ki (human H3 receptor; read-out: Human H3 Ki): < 200 nM | melting point: 130 to 133 °C | Ki ([1]; read-out: Rat H3 kI): < 200 nM
